# Assay results reported in article PMC10079235 (PLOS Neglected Tropical Diseases, 2023).
# Where two headings read alike, the source gives them in different places.
# System: Cryptosporidium parvum
# Test: Anti-cryptosporidial efficacy assay (44-h infection/qRT-PCR)
# Details: for On-target (Eon) rate at EC50: Eq 2; for Eoff, proportion of off-parasite-target effect / Eon, proportion of on-parasite-target effect: MDR1(PTX) vs. NC model, Eq 3 and 4; for EC50: read-out: Antiparasitic efficacy (EC50)
substance,measurement,setting,value
Ivermectin,On-target (Eon) rate at EC50,MDR1(PTX) cell model,77.1%
same,On-target (Eon) rate at EC50,"MDR1(PTX) cell model, listed as IVM",77.1%
same,Off-target (Eoff) rate at EC50,"MDR1(PTX) cell model, from Pct changes of EC50 and TC50 (Eq 1)",22.9%
same,Action on parasite target (on-target) conclusion,MDR1-transgenic host cell model,partially on-target
same,"Eoff, proportion of off-parasite-target effect",at EC10,18.40%
same,"Eon, proportion of on-parasite-target effect",at EC10,81.60%
same,"Eon, proportion of on-parasite-target effect","at EC10, listed as IVM",81.6%
same,"Eoff, proportion of off-parasite-target effect",at EC20,20.10%
same,"Eon, proportion of on-parasite-target effect",at EC20,79.90%
same,"Eoff, proportion of off-parasite-target effect",at EC30,21.20%
same,"Eon, proportion of on-parasite-target effect",at EC30,78.80%
same,"Eoff, proportion of off-parasite-target effect",at EC40,22.10%
same,"Eon, proportion of on-parasite-target effect",at EC40,77.90%
same,"Eoff, proportion of off-parasite-target effect",at EC50,22.8%
same,"Eon, proportion of on-parasite-target effect",at EC50,77.2%
same,"Eoff, proportion of off-parasite-target effect",at EC60,23.60%
same,"Eon, proportion of on-parasite-target effect",at EC60,76.40%
same,"Eoff, proportion of off-parasite-target effect",at EC70,24.40%
same,"Eon, proportion of on-parasite-target effect",at EC70,75.60%
same,"Eoff, proportion of off-parasite-target effect",at EC80,25.30%
same,"Eon, proportion of on-parasite-target effect",at EC80,74.70%
same,"Eoff, proportion of off-parasite-target effect",at EC90,26.60%
same,"Eon, proportion of on-parasite-target effect",at EC90,73.40%
same,"Eon, proportion of on-parasite-target effect","at EC90, listed as IVM",73.4%
same,EC50,C. parvum cultured in MDR1(PTX) host cells,4.25 µM
same,EC50,C. parvum cultured in NC host cells,3.23 µM
same,EC50,C. parvum cultured in WT host cells,3.16 µM
